In PMC5767327, “Tonically Active α2 Subunit-Containing Glycine Receptors Regulate the Excitability of Striatal Medium Spiny Neurons” (Frontiers in Molecular Neuroscience, 2018):

Target: T1, GlyR α2 (native α2 subunit-containing glycine receptors of striatal medium spiny neurons) (Mus musculus, UniProt Q7TNC8)
T1 construct: gene Glra2; native full-length receptor in adult dorsal striatal slices; α2 homomer or α2β heteromer (Glrb) not resolved by authors; no glycine current in Glra2 knockout MSNs
T1 sequence (Q7TNC8 28-452): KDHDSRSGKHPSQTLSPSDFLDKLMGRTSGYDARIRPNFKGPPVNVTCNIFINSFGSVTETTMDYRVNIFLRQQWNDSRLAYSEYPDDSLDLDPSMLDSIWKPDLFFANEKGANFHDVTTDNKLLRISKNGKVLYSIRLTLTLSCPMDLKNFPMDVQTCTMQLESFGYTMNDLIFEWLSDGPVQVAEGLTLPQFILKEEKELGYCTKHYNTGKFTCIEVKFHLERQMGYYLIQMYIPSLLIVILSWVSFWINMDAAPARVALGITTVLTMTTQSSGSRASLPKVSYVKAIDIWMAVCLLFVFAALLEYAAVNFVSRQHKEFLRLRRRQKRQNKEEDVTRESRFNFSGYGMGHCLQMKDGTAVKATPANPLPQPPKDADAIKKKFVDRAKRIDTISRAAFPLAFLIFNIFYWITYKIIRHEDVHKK
Experiment: whole-cell patch clamp, evoked chloride current, fast perfusion, Hill fit
Assay type: cell-based
Conditions: read-out: STP MSNs (n = 6); agonist; STP MSNs (Drd2-EGFP) in acute striatal slices, native receptor; -80 mV, 32°C; with gabazine, CNQX, DHβE, L-689,560, TTX; authors call it a higher boundary (diffusion in slice)
Description: whole-cell patch clamp, evoked chloride current, fast perfusion, Hill fit on GlyR α2 (native α2 subunit-containing glycine receptors of striatal medium spiny neurons)

`NCC(=O)O` [glycine] was tested, and the EC50 was 317 ± 25.4 µM.
